PMC11909088, “Synthesis, molecular docking and molecular dynamics simulations, drug-likeness studies, ADMET prediction and biological evaluation of novel pyrazole-carboxamides bearing sulfonamide moiety as potent carbonic anhydrase inhibitors” (Molecular Diversity, 2024)

Columns and labels:
hCA I = hCA I (Homo sapiens, UniProt P00915); experiment: Esterase activity inhibition of hCA I purified from human erythrocytes (IC50, Ki); assay type: biochemical; conditions: for Inhibition Type hCA I / Ki: Lineweaver-Burk plot; for Ki / IC50: NI = No Inhibition; for IC50: mean from three assays, spectrophotometric; for inhibition effect on hCA I (in words): esterase activity
Protocol: (§1) Esterase activities of purified hCA I and hCA II were determined according to the literature. Activity measurement has described in detail in our previous studies.
(§2) The method for determination of Ki values has described in detail in our previous studies. […] The data have linearized with Lineweaver–Burk plot in order to obtain Ki values.
(§3) IC50 and Ki values were expressed by averaging the results from triplicate experiments.
(§4) The enzymatic reaction, in a total volume of 3.0 mL, contained 1.4 mL of 0.05 M TRIS–SO4 buffer (pH 7.4), 1.0 mL of 3.0 mM 4-nitrophenylacetate, 0.5 mL H2O and 0.1 mL enzyme solution. A reference measurement was obtained by preparing the same cuvette without enzyme solution [46–49, 53].
(§5) Regression analysis graphs were drawn by plotting the percent enzyme activity versus inhibitor concentration and IC50 values were calculated.
(§6) Enzyme activity was also measured in the presence of the same substrate concentrations but in the absence of any inhibitor to determine the Vmax.

hCA II = hCA II (Homo sapiens, UniProt P00918); experiment: Esterase activity inhibition of hCA II purified from human erythrocytes (IC50, Ki); assay type: biochemical; conditions: for Inhibition Type hCA II / Ki: Lineweaver-Burk plot; for Ki / IC50: NI = No Inhibition; for IC50: mean from three assays, spectrophotometric; for inhibition effect on hCA II (in words): esterase activity
Protocol: as §1, §2, §3, §4, §5, §6

Chain of hCA I (P00915 whole entry): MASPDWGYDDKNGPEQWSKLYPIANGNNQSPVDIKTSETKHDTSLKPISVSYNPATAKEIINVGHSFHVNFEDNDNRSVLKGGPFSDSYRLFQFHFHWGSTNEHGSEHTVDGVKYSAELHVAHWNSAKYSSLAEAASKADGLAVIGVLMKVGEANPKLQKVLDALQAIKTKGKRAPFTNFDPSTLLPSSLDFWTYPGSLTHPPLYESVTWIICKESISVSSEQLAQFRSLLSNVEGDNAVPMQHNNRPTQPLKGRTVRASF

Inhibition Type hCA I (hCA I)	Ki (hCA I)	IC50 (hCA I)	Inhibition Type hCA II (hCA II)	Ki (hCA II)	stronger inhibitory effect than AAZ for hCA II (hCA II; compared with reference compound AAZ)	IC50 (hCA II)	melting point	inhibition effect on hCA I (in words) (hCA I)	inhibition effect on hCA II (in words) (hCA II)	maximal decrease of hCA I activity (hCA I; at most)	Compound
Non competitive	237 nM	463 nM	Non competitive	30 nM	approximately fivefold	139 nM					NS(=O)(=O)c1cccc(NC(=O)c2nn(-c3ccccc3)c(-c3ccccc3)c2C(=O)c2ccccc2)c1 [Compound 6b, 4-benzoyl-1,5-diphenyl-N-(3-sulfamoylphenyl)-1H-pyrazole-3-carboxamide]
Non competitive	3370 nM	6200 nM	Non competitive	4230 nM		6410 nM	233 to 235 °C				NS(=O)(=O)c1ccccc1NC(=O)c1nn(-c2ccccc2)c(-c2ccccc2)c1C(=O)c1ccccc1 [Compound 6c, 4-benzoyl-1,5-diphenyl-N-(2-sulfamoylphenyl)-1H-pyrazole-3-carboxamide]
							239 to 241 °C	did not show any inhibition effect	did not show any inhibition effect		O=C(Nc1ccc(S(=O)(=O)Nc2ccccn2)cc1)c1nn(-c2ccccc2)c(-c2ccccc2)c1C(=O)c1ccccc1 [Compound 6d, 4-benzoyl-1,5-diphenyl-N-(4-(N-(pyridin-2-yl)sulfamoyl)phenyl)-1H-pyrazole-3-carboxamide]
							244 to 246 °C	did not show any inhibition effect	did not show any inhibition effect		O=C(Nc1ccc(S(=O)(=O)Nc2ncccn2)cc1)c1nn(-c2ccccc2)c(-c2ccccc2)c1C(=O)c1ccccc1 [Compound 6e, 4-benzoyl-1,5-diphenyl-N-(4-(N-(pyrimidin-2-yl)sulfamoyl)phenyl)-1H-pyrazole-3-carboxamide]
							237 to 239 °C	did not show any inhibition effect	did not show any inhibition effect		Cc1ccnc(NS(=O)(=O)c2ccc(NC(=O)c3nn(-c4ccccc4)c(-c4ccccc4)c3C(=O)c3ccccc3)cc2)n1 [Compound 6f, 4-benzoyl-N-(4-(N-(4-methylpyrimidin-2-yl)sulfamoyl)phenyl)-1,5-diphenyl-1H-pyrazole-3-carboxamide]
		1660 nM					165 to 167 °C			≤ 50%	Cc1noc(NS(=O)(=O)c2ccc(NC(=O)c3nn(-c4ccccc4)c(-c4ccccc4)c3C(=O)c3ccccc3)cc2)c1C [Compound 6g, 4-benzoyl-N-(4-(N-(3,4-dimethylisoxazol-5-yl)sulfamoyl)phenyl)-1,5-diphenyl-1H-pyrazole-3-carboxamide]
							252 to 254 °C		did not inhibit		O=C(Nc1ccc(S(=O)(=O)Nc2nccs2)cc1)c1nn(-c2ccccc2)c(-c2ccccc2)c1C(=O)c1ccccc1 [Compound 6h, 4-benzoyl-1,5-diphenyl-N-(4-(N-(thiazol-2-yl)sulfamoyl)phenyl)-1H-pyrazole-3-carboxamide]
							280 to 282 °C	did not show any inhibition effect	did not show any inhibition effect		N=C(N)NS(=O)(=O)c1ccc(NC(=O)c2nn(-c3ccccc3)c(-c3ccccc3)c2C(=O)c2ccccc2)cc1 [Compound 6i, 4-benzoyl-N-(4-(N-carbamimidoylsulfamoyl)phenyl)-1,5-diphenyl-1H-pyrazole-3-carboxamide]
